Laboratory results reported in publication PMC6212544, “Identification and Characterization of Novel CFTR Potentiators” (Frontiers in Pharmacology, 2018).

Assays:
[1] = molecular target: F508del CFTR (Homo sapiens, UniProt P13569, DEL508-508); experiment: YFP halide assay, CFBe41o- cells, chemically corrected F508del CFTR; assay type: cell-based; details: GLPG2222-like compound 1 μM as corrector, Supplementary Figure 2
Experimental: CFBe41o- cells were plated in black 384-well microplates at a density of 1,500 cells per well. After 24 h, cells were transduced with adenoviruses containing F508del CFTR and YFP (H148Q/I152L/) F47L using a multiplicity of infection of 30 infectious units per cell for each adenovirus. The next day, for the low temperature corrected assay, cells were incubated at 27°C for 24 h, for the chemically corrected assay cells were treated with corrector for 24 h at 37°C. On the day of analysis, cells were washed five times with Dulbecco’s Phosphate-Buffered Saline (DPBS) containing Ca^2+ and Mg^2+ (Life Technologies) using a Microplate Washer (BioTek). […] The capacity of potentiators to increase CFTR channel function was expressed as 1-[fluorescence 36 s after NaI addition (F)/fluorescence before NaI addition (F0)], a timepoint optimized previously, resulting in an optimal signal window. […]
Compound activity was then tested in a more physiologically relevant system, i.e., primary bronchial epithelial cells derived from CF patients. The effect on the function of VX809 (3 μM) corrected F508del/F508del CFTR was determined using an electrophysiological readout (TECC) and the data were compared to the data generated in the YFP halide assay. […]

[2] = molecular target: WT CFTR (Homo sapiens, UniProt P13569); experiment: YFP halide assay, HEK293 cells expressing WT CFTR; assay type: cell-based; design: expressed in transfected cells; details: HEK293, 10 μM forskolin; read-out: Potency on WT CFTR (YFP halide assay)
Experimental: HEK293 cells were transfected with 10–80 ng of plasmid encoding G551D, G178R, G1349D, S549N, R117H, R334W, or wild type CFTR and 20 ng of plasmid encoding YFP (H148Q/I152L/F47L) using jetPEI (Polyplus transfection). Directly after transfection, cells were seeded in black 96-well plates coated with Poly-D-lysine at a density of 70,000 cells per well. The next day, cells were incubated at 27°C for 24 h, for low temperature correction. When evaluating in a chronic setting, the potentiator concentration range was also added to the cells for 24 h. After this incubation period, cells were washed twice with DPBS with Ca^2+ and Mg^2+. Subsequently, cells were treated with 10 μM forskolin and the desired concentration of potentiator in a volume of 40 μl and incubated at room temperature for 10 min, a timepoint optimized in previous experiments resulting in a good window (positive control/negative control > 2) and signal to background ratio. YFP fluorescence was measured using an EnVision plate reader (PerkinElmer). […] The excitation wavelength was 485 nm and the emission wavelength 530 nm. The capacity of potentiators to increase CFTR channel function was expressed as 1-[fluorescence 7 s after NaI addition (F)/fluorescence before NaI addition (F0)]. […]

Sequence of F508del CFTR (P13569 with tags, fused parts or gaps DEL508-508): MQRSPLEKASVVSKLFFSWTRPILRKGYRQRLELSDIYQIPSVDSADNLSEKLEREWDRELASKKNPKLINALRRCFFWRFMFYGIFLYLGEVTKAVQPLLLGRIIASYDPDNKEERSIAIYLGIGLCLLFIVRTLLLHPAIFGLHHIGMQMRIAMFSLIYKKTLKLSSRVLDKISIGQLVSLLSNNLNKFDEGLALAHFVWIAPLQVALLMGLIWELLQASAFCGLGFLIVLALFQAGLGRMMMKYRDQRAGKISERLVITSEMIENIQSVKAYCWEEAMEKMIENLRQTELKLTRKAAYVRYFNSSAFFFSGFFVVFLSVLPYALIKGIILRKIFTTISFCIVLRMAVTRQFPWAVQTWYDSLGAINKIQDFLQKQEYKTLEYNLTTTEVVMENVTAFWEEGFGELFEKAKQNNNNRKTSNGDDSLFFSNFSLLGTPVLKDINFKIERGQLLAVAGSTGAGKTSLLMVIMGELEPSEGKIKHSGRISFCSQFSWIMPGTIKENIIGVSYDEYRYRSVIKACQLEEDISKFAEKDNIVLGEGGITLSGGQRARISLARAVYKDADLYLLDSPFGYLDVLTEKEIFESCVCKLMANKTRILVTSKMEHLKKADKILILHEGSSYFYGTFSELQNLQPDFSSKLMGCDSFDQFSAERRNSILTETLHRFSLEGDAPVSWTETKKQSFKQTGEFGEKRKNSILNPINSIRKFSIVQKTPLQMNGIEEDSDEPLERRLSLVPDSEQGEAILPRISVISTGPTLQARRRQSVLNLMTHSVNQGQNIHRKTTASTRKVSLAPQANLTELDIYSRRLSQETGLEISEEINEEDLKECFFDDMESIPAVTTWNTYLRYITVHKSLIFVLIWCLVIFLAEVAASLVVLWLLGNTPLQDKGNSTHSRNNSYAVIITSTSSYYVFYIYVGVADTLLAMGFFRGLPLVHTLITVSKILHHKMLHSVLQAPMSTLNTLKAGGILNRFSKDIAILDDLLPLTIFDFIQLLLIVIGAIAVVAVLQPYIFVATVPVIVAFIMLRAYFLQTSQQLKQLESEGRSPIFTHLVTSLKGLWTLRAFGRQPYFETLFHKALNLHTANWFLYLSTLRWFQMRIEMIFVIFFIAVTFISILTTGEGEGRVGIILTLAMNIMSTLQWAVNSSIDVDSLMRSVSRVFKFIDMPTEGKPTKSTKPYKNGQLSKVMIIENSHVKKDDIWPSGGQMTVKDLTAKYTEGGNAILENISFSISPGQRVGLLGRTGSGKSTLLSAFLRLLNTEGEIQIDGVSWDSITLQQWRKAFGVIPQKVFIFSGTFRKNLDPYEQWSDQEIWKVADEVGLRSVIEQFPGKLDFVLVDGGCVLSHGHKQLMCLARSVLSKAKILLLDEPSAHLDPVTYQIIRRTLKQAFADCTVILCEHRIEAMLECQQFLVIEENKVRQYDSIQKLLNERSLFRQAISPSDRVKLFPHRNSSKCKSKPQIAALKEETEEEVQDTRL
Sequence of WT CFTR (P13569 whole entry): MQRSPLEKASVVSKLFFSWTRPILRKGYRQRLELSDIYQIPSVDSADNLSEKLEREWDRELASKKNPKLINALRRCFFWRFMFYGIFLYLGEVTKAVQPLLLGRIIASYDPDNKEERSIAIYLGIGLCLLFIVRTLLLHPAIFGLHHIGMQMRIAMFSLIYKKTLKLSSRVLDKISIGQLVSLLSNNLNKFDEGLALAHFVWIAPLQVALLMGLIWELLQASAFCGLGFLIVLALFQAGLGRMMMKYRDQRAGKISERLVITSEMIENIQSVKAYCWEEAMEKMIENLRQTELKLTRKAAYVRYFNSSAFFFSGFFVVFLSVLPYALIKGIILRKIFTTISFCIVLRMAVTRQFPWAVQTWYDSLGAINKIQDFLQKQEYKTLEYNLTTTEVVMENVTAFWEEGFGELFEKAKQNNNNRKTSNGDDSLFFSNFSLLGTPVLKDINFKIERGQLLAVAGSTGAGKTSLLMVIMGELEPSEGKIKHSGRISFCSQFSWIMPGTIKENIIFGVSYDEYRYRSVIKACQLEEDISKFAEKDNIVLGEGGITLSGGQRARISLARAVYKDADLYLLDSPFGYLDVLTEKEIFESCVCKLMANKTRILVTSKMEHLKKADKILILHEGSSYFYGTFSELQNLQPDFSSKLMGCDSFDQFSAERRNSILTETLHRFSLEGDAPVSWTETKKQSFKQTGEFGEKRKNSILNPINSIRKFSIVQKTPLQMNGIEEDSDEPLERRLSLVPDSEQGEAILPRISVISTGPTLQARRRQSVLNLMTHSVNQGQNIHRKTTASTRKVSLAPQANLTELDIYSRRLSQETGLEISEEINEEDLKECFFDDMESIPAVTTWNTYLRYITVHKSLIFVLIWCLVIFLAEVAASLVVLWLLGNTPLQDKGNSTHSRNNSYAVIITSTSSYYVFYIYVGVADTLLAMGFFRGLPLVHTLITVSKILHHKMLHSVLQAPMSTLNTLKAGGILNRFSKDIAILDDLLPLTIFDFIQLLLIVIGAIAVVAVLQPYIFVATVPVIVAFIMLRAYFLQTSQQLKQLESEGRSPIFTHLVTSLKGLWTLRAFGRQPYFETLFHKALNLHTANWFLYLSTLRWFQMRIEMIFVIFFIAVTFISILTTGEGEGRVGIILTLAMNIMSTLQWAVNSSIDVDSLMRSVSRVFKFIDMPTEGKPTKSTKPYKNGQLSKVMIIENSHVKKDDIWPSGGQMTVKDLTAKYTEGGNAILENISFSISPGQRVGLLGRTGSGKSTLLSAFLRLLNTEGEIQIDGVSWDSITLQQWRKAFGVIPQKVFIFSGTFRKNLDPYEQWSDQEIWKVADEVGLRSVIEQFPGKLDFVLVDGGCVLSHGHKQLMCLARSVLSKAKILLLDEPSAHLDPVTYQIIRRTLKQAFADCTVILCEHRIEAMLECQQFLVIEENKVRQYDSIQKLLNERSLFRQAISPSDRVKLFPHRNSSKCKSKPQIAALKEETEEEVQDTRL

C[C@H](O)CNC(=O)c1ncc(S(=O)(=O)c2ccc(OC(F)(F)F)cc2)cc1N [GLPG2451]
Potency on chemically corrected F508del CFTR (YFP halide assay) [1]: corresponded closely to the potency obtained on chemically corrected F508del HBE cells
EC50 [2]: 0.0797 µM

CC1(C)Cc2c(sc(NC(=O)c3ccn[nH]3)c2C(N)=O)C(C)(C)O1 [GLPG1837, N-(3-Carbamoyl-5,5,7,7-tetramethyl-5,7-dihydro-4H-thieno[2,3-c]pyran-2-yl)-lH-pyrazole-5-carboxamide]
Potency on chemically corrected F508del CFTR (YFP halide assay) [1]: corresponded closely to the potency obtained on chemically corrected F508del HBE cells
EC50 [2]: 0.104 µM
